# Assay results from article PMC6538953, “Metal Ions Activate the Human Taste Receptor TAS2R7” (Chemical Senses, 2019).
# Molecular target: T1, human TAS2R7 E271^7.39 to glutamine mutant (Homo sapiens, UniProt Q9NYW3, E271Q)
# T1 construct: signal peptide: first 45 amino acid residues of rat somatostatin receptor 3 (N); expressed in transfected cells; host or cells: HEK293 PEAKrapid (ATCC CRL-2828), transient, co-transfected with Gα16-gust44
# T1 sequence (Q9NYW3 1-318 E271Q): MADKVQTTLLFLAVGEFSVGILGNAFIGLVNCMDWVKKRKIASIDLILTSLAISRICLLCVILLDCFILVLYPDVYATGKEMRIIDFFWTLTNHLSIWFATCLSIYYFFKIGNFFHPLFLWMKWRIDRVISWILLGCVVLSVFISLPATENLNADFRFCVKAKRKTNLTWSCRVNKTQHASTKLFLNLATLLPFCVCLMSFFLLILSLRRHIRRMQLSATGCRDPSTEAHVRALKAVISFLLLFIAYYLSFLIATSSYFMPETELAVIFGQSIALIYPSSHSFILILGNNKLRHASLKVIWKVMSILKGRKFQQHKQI
# Experiment: Calcium mobilization assay, TAS2R7 mutant E271Q
# Type: cell-based
# Details: 20 mM metal ions except 0.16 mM Al2(SO4)3; cromolyn 10 mM; Figure 6C
# From the text: The coding sequences of human TAS2Rs were amplified from human genomic DNA, then subcloned into pcDNA3.1(+) vector, with the herpes simplex virus glycoprotein D epitope (HSV) at the C-terminal and a signal peptide consisting of the first 45 amino acid residues of the rat somatostatin receptor 3 at the N-terminal, essentially as described previously ([Bufe et al. 2002]). Point mutations in human TAS2R7 (NCBI Reference Sequence: NP_076408.1) were constructed by site-directed mutagenesis. All the constructs were confirmed by Sanger sequencing.
# Human embryonic kidney 293 (PEAKrapid, ATCC # CRL-2828) cells were cultured in Opti-MEM medium with 4% fetal bovine serum. […] After incubation, cells were washed 2 times with HBSS (including 10 mM HEPES), incubated in the dark for another 30 min, and then washed with assay solution once more before running the assay using a FlexStation III reader. Relative fluorescence units (excitation at 494 nm, emission at 516 nm, and auto cutoff at 515 nm) were read every 2 s for 2 min. Calcium mobilization traces were recorded.
# Calcium mobilization traces were raw data obtained from single wells. Changes in fluorescence (ΔF) were calculated as the peak fluorescence minus baseline fluorescence ([Lei et al. 2015]). The calcium mobilization was quantified as the percentage of change (ΔF) relative to baseline (F). […]
compound,measurement,value
"O=C(O)c1cc(=O)c2c(OCC(O)COc3cccc4oc(C(=O)O)cc(=O)c34)cccc2o1 [cromolyn, reference compound]",Response of E271 to glutamine mutant receptor,slightly reduced responses
